Assay results reported in US20140213559A1, “COMPOSITIONS AND TREATMENTS FOR DYSTROPHIES” (MD PHARMA AB, priority 2011, published 2014).

How the values were obtained:
Type in all cases: in vivo, mouse
[1] = tested on: autophagy-related genes (LC3B, Cathepsin L, Lamp2a, Gabarapl1, Atg4b, Vps34, Beclin); assay: Expression of autophagy-related genes in quadriceps muscle after systemic 3-MA injection (qRT-PCR, Western blot, immunofluorescence); conditions: dy3K/dy3K mice, 3-MA 15 mg/kg intraperitoneal at 2.5 and 3.5 weeks, 14 days post-injection
Method: (§1) Systemic administration was performed by intraperitoneal injection of 3-MA (15 mg/kg) into dy3K/dy3K mice and control littermates at the age of 2.5 weeks and 3.5 weeks. Mice were sacrificed 14 days after injection and quadriceps and tibialis anterior muscles were processed for morphometric analysis, immunofluorescence experiments, qRT-PCR or Western blot analysis. Prior to the euthanasia, an exploratory locomotion test was performed.
Total RNA was extracted from 10 mg quadriceps muscle of 6 dy3K/dy3K mice (3.5-week-old) and 6 WT littermates and 5 WT and 5 dy3K/dy3K mice treated with 3-MA using RNeasy mini kit (Qiagen) including an initial step of proteinase K digestion (Fermentas, 240 ng/μl). […] Quantitative PCRs were performed in triplicate with the Maxima SYBR Green qPCR Master Mix (Fermentas). Expression of target and reference genes was monitored using a real-time qRT-PCR method (Light Cycler, Roche) with the previously described primers for the autophagic genes LC3B, Cathepsin L, Lamp2a, Gabarapl1, Atg4b, Vps34 and Beclin (8). The amplification efficiency for each primer pair was evaluated by amplification of serially diluted template cDNAs ([…]). Efficiency corrected RNA levels (in arbitrary units) were calculated by using the formula E^−Ct. Expression levels were then calculated relative to the endogenous control gene GAPDH and relative to wild-type quadriceps. […]

dy3K/dy3K mice [2] = assay: Histology, immunofluorescence and morphometric analysis of muscle after systemic 3-MA injection
Method: Systemic administration was performed by intraperitoneal injection of 3-MA (15 mg/kg) into dy3K/dy3K mice and control littermates at the age of 2.5 weeks and 3.5 weeks. […] Prior to the euthanasia, an exploratory locomotion test was performed.
Quadriceps and tibialis anterior muscles from wild-type, dy3K/dy3K and injected mice (n=6 for each group) were rapidly dissected after euthanasia and frozen in OCT (Tissue Tek) in liquid nitrogen. Serial sections of […] were either stained with hematoxylin and eosin or processed for immunofluorescence experiments following standard procedures (20) with rabbit polyclonal antibodies directed against LC3B (1/100, #3868, Cell Signaling Technology), laminin γ1 chain (1/1000, #1083), laminin α4 chain (1/400, #1100) and […] (1/400, #1117) generously provided by Dr. T. Sasaki, rat monoclonal antibodies against laminin γ1 chain (1/200, MAB 1914, Chemicon) and tenascin-C (undiluted, MTn15), goat polyclonal antibody against collagen III (1/100, #1330, SouthernBiotech) and mouse monoclonal antibodies against caspase-3 (1/100, CPP32, BD Transduction Laboratory), embryonic myosin heavy chain (F1.652, Developmental Studies Hybridoma Bank) and MyoD (1/100, clone 5.8A Dako). For apoptotic myofiber detection, a TUNEL detection kit was used following instructions of the manufacturer (GenScript). Sections were analyzed using a Zeiss Axioplan fluorescence microscope. Images were captured using an ORCA 1394 ER digital camera with the Openlab 3 software.
Measurements were performed on whole quadriceps or tibialis anterior muscle sections from untreated wild-type and dy3K/dy3K, wild-type and dy3K/dy3K 3-MA injected animals (n=6 for each group). Tenascin-C and collagen III positive areas, eMHC positive fibers, caspase-3 positive fibers, TUNEL-positive myonuclei and fiber diameters were measured using the imageJ software. Minimal Feret's diameter was measured (41) for at least 1500 fibers for each mouse. The same number of fibers was used for quantification of fibers with centrally located nuclei. Wet quadriceps muscle weights were determined from 7 uninjected wild-type or dy3K/dy3K and 3-MA treated wild-type (n=4) and dy3K/dy3K (n=6) animals and correlated to body weight.

Akt = Akt phosphorylation in quadriceps muscle, Western blot; conditions: dy3K/dy3K quadriceps
Method: as §1
Isolated quadriceps muscles were obtained from 6 wild-type, 6 dy3K/dy3K mice (3.5 weeks of age) and 6 dy3K/dy3K mice 48 h or 14 days after 3-MA injection. Each sample was immediately frozen in liquid nitrogen and reduced to powder using a mortar. Protein extracts were obtained as previously described (16). A total of […] of denaturated protein was loaded on 10-20% acrylamide SDS-gels (Clearpage, CBS Scientific) and blotted onto nitrocellulose membranes (Hybond-C, Amersham) during 1.5 hour (Biorad). The membranes were blocked for one hour at RT in PBS, 0.01% Tween-20, 5% milk and incubated overnight at 4° C. with rabbit polyclonal antibodies directed against pAkt (Ser 473, 1/2000, #4060 or Thr 308, 1/1000, #2965, Cell Signaling Technology), Akt (1/1000, #4685, Cell Signaling Technology), Vps34 (1/200, V9764, Sigma) or LC3B (1/250, #2775, Cell Signaling Technology). […]

dy3K/dy3K mice [3] = assay: Exploratory locomotion, open field test; conditions: 3-MA injected dy3K/dy3K mice, 14 days after injection, 5 min
Method: as §1
Exploratory locomotion was examined in an open field test. In each experiment, the mouse 14 days after 3-MA injection (n=11 for dy3K/dy3K and wild-type, respectively) was placed into a new cage and allowed to explore the cage for 5 min. The time that the mouse spent moving around was measured manually.

dy3K/dy3K mice [4] = assay: Survival curves; conditions: two systemic injections of 3-MA, 22 days for non-treated
Method: as §1
Death was monitored in 3-MA injected dy3K/dy3K mice (n=9). A survival curve was constructed using the GraphPad Prism 4 software.

dy3K/dy3K mice [5] = assay: Body weight measurement; conditions: 3-MA treated vs non-injected dy3K/dy3K mice, 4-week-old
Method: as §1

dy3K/dy3K mice [6] = assay: Peripheral neuropathy / hind leg paralysis observation; conditions: 3-MA treated dy3K/dy3K mice
Method: as §1

wild-type mice = assay: Hind leg paralysis observation in injected wild-type mice; conditions: 3-MA injected wild-type mice
Method: as §1

[7] = 3-MA injected dy3K/dy3K mice, quadriceps
[8] = 3-MA injected vs non-injected dy3K/dy3K mice, quadriceps, 14 days post-injection
[9] = 3-MA treated dy3K/dy3K mice, quadriceps, 14 days

Cn1cnc(N)c2ncnc1-2 [3-MA, 3-methyladenine]
expression of the autophagy-related genes [1]: restored the expression of the autophagy-related genes to the basal level
amount of MyoD1 positive nuclei (dy3K/dy3K mice [2]; [7]): increased
number of cells with centrally located nuclei (dy3K/dy3K mice [2]; [7]): slightly but significantly elevated
proportion of fibers expressing eMHC (dy3K/dy3K mice [2]; [7]): significantly increased
ratio of quadriceps muscle wet weight per body weight (dy3K/dy3K mice [2]; 3-MA injected vs age-matched non-injected dy3K/dy3K mice): normalized
Collagen III expression (fibrosis) (dy3K/dy3K mice [2]; [8]): reduced
tenascin-C expression (fibrosis) (dy3K/dy3K mice [2]; [8]): reduced
proportion of TUNEL-positive myonuclei (dy3K/dy3K mice [2]; 3-MA treated dy3K/dy3K animals, quadriceps): significantly reduced
expression of laminin 132 chain (dy3K/dy3K mice [2]; [9]): near normal
expression of laminin α4 chain (dy3K/dy3K mice [2]; [9]): near normal
muscle morphology (dy3K/dy3K mice [2]; dy3K/dy3K mice, 3-MA 15 mg/kg intraperitoneal at 2.5 and 3.5 weeks, 14 days post-injection): considerably improved muscle morphology
caspase-3 positive fibers (dy3K/dy3K mice [2]; dy3K/dy3K mice, forty-eight hours after 3-MA injection): same proportion as in non-injected dy3K/dy3K mice
proportion of caspase 3 positive fibers (dy3K/dy3K mice [2]; dy3K/dy3K quadriceps, 14 days after injection): significantly decreased
average fibre diameter (dy3K/dy3K mice [2]; quadriceps, dy3K/dy3K mice upon 3-MA injection): increased
fibre size distribution in quadriceps muscle (dy3K/dy3K mice [2]; wild-type and dy3K/dy3K injected animals): significantly shifted towards larger fibres
Akt phosphorylation on threonine 308 and serine 473 (Akt; 48 h after injection): restored to wild-type levels
Akt phosphorylation on threonine 308 and serine 473 (Akt; 14 days after injection): restored to wild-type levels
activity in an open field test (exploratory locomotion) (dy3K/dy3K mice [3]): same level of activity as wild-type animals
median survival (dy3K/dy3K mice [4]): 37 days
body weight (dy3K/dy3K mice [5]): weighed significantly more
pathology of the peripheral nerve (dy3K/dy3K mice [6]): did not appreciably improve
hind leg paralysis (dy3K/dy3K mice [6]; similar in non-treated dy3K/dy3K mice): transient hind leg paralysis often occurred in one leg
hind leg paralysis (wild-type mice): not in 3-MA injected wild-type mice
